What was measured:
MDA-MB-231 cells [1] = assay: Western blotting (AMPK, EMT proteins); format: cell-based, human; conditions: 48 h
Experimental: (§1) For western blotting (WB), whole-protein extracts from MDA-MB-231, SkBr3 and MDA-MB-436 cells were prepared using RIPA buffer (50 mM Tris pH 7.4, 150 mM NaCl, 1% Triton-X-100, 0.05% sodium deoxycholate, 1 mM EDTA, 0.1% SDS, protease inhibitor cocktail and PhosSTOP Phosphatase Inhibitor Cocktail (Roche®)), centrifuged at 10,000×g for 10 min, and quantified using the Bio-Rad® Protein Assay. Proteins (50 μg for MDA-MB-231 and 100 μg for SkBr3 and MDA-MB-436 cells) were loaded into each lane of a 10-12% polyacrylamide gel in the presence of SDS, and were allowed to separate at 120 V for 90 min. The transfer of proteins onto nitrocellulose membranes was performed using an iBlot 2 Dry Blotting System (Thermo Fisher Scientific®) with the 7 min P0 program. Membranes were then blocked using 5% (w/v) powdered milk for 1 h, and incubated overnight at 4° C. with a primary antibody (Table 4).
(§2) β-actin served as a loading control. Immunodetection was performed at room temperature for 1 h using as secondary antibodies a horseradish peroxidase-conjugated goat anti-rabbit (Jackson®, Cat #111-035-003) and goat anti-mouse (Jackson®, Cat #115-035-003) in PBS-Tween containing 5% (w/v) milk or BSA. Detection was performed with ECL reagent (Amersham®, Cat #RPN2209), and protein bands were visualized and captured using ECL imager 600 (Amersham®). They were analyzed using the Image J software (Java).

SkBr3 cells [2] = assay: Western blotting (AMPK, EMT proteins); format: cell-based, human; conditions: 48 h
Experimental: as §1, §2

SkBr3 spheroids = assay: Spheres / stem-like spheroids; format: cell-based, human
Experimental: (§3) Total mRNA from MDA-MB-231, SkBr3 and MDA-MB-436 cells treated ±MitoQ for 48 h was extracted using the NucleoSpin RNA Kit (Macherey-Nagel®). Total mRNA from primary tumors was extracted with Tri reagent (Molecular Research Center®, Cat #TR118). mRNAs were quantified by the Qubit BR dsRNA assay kit (Thermo Fisher Scientific®), and mRNA integrity was evaluated on an Agilent® 2100 Bioanalyzer with the RNA 6000 nano kit (Agilent®). It was reverse transcribed in complementary DNA using the High-Capacity cDNA Reverse Transcription Kit (Applied Biosystems®, cat #4368814) according to manufacturer's protocol. Complementary DNA (500 ng) was amplified by real time quantitative PCR (RT-qPCR) using the low ROX SYBR Master Mix dTTP Blue (Eurogentec®) and primers listed in Table 5 and Table 6 on a ViiA 7 Real-Time PCR System (Thermo Fisher Scientific®). Gene expression was normalized to β-actin gene expression.
(§4) 3D models were used to obtain an enriched population in stem cells. For that, 10^4 MDA-MB-231, SkBr3 or MDA-MB-436 cancer cells were grown in suspension using 10 cm dishes coated with Polyhema in stem-cell medium: DMEM/F-12 (Gibco®, cat #11320033) supplemented with 100 units/mL penicillin, 100 μg/mL streptomycin, 20 μL/mL B27 (Gibco®, cat #17504044), 20 ng/mL human recombinant epithelial growth factor (EGF) (Peprotech®, cat #AF-100-15), 10 ng/mL basic fibroblast growth factor (bFGF; Peprotech®, cat #100-18B) and 2.5 mg/mL insulin. When spheres reached around 100 μm in diameter, they were washed with PBS and dissociated with accutase (Stem Cell Technology®, cat #07920) in order to have single cells again. At the third passage, dissociated spheres were treated ±MitoQ for 96 h. Images were captured on Axiovert™ 40 CFL microscope equipped with a MRC camera. At the end of the treatment, living cells were collected for RNA extraction.
(§5) Stem like-spheroids were prepared by seeding 5,000 MDA-MB-231, SkBr3 or MDA-MB-436 dissociated spheres/well in ultra-Low attachment 96-well plates (Corning®, cat #7007) in stem cell medium supplemented as described above. After overnight formation, spheroids were treated ±MitoQ for 96 h. Spheroid growth was monitored using an Axio Observer live-cell phase contrast microscope (Zeiss®).

MDA-MB-231 spheroids = assay: Spheres / stem-like spheroids; format: cell-based, human
Experimental: as §3, §4, §5

MDA-MB-436 cells [3] = assay: Western blotting (EMT proteins); format: cell-based, human; conditions: MitoQ 500 nM, 48 h
Experimental: as §1, §2

[4] = test system: MDA-MB-231 human breast cancer cells; assay: Metastatic take assay, tail vein injection of pretreated cells; format: in vivo, mouse; conditions: cells pretreated 6 h with 1 μM MitoQ
Experimental: For metastasis take assays, cancer cells were pretreated ±MitoQ for 6 h, and 10^6 viable cells were injected into the tail vein of five weeks-old female Rj:NMRI-Foxn1nu/nu mice (Janvier). After 4 weeks, mice were sacrificed and the lungs insufflated with 3 mL of Indian ink (15% in ddH2O). Mouse lungs were removed, washed with PBS and incubated overnight in Fekete's solution (700 mL/L 100% ethanol, 32 mL/L 37% formalin, 40 mL/L glacial acetic acid, diluted in ddH2O). The next morning, lungs were transferred to a 70% ethanol solution and were further examined under a Stemi 2000-C dissection stereomicroscope (Zeiss®) to count the number of metastasis per lung.

MDA-MB-231 cells [5] = assay: RT-qPCR of EMT markers; format: cell-based, human; conditions: MitoQ 500 nM, 48 h
Experimental: as §3

MDA-MB-436 cells [6] = assay: RT-qPCR of EMT markers; format: cell-based, human; conditions: MitoQ 100 nM, 48 h
Experimental: as §3

SkBr3 cells [7] = assay: RT-qPCR of EMT markers; format: cell-based, human; conditions: MitoQ 500 nM, 48 h
Experimental: as §3

COC1=C(OC)C(=O)C(CCCCCCCCCC[P+](c2ccccc2)(c2ccccc2)c2ccccc2)=C(C)C1=O [MitoQ]
5′ AMP-activated protein kinase (AMPK), P-T172-AMPK/total AMPK (MDA-MB-231 cells [1]; MitoQ 100 nM): activation | SNAIL, ZEB1, Twist1 and E-cadherin protein expression (MDA-MB-231 cells [1]; MitoQ 500 nM): decreased | AMPK activation (SkBr3 cells [2]; MitoQ 100 nM): did not significantly activate | SNAIL protein expression (SkBr3 cells [2]; MitoQ 500 nM): decreased | NANOG and SOX2 mRNA expression (SkBr3 spheroids): decreased | spheroid formation and spheroid destabilization (SkBr3 spheroids): Neither inhibition of spheroid formation not spheroid destabilization was seen | dose sufficient to destabilize already formed spheroids (MDA-MB-231 spheroids): 100 nM | mRNA expression of stem cells markers POU5F1/(Oct4), NANOG and SOX2 (MDA-MB-231 spheroids; MitoQ 250 nM): significant decrease | spheroid formation (MDA-MB-231 spheroids; MitoQ 250 nM): inhibited | protein expression of Vimentin, SNAI1, SNAI2 (SLUG), ZEB1 and TWIST1 (MDA-MB-436 cells [3]): decrease | mice metastasis-free ([4]; at necropsy, four weeks): 36.4% | mice with <2 metastasis ([4]; at necropsy, four weeks): 27.2% | mice with >2 lung metastases ([4]; at necropsy, four weeks): 36.4% | metastasis developed vs mice that received vehicle-treated cells ([4]; four weeks after injection of 10^6 cells): significantly less | SLUG/SNAI2 transcription (MDA-MB-231 cells [5]): not significantly altered | mRNA expression of EMT markers vimentin (VIM), SNAIL (SNAI1), ZEB1 and TWIST1 (MDA-MB-231 cells [5]): decreased | mRNA expression of EMT markers VIM (vimentin), SNAI1, SNAI2 and TWIST1 (MDA-MB-436 cells [6]): downregulated | mRNA expression of all analyzed EMT inducers (SkBr3 cells [7]): repressed

Reference: patent publication US20250270648A1, “MOLECULAR SIGNATURE FOR ASSESSING THE RESPONSIVENESS OF CANCER TO MITOCHONDRIA-TARGETED ANTIOXIDANTS” (UNIVERSITÉ CATHOLIQUE DE LOUVAIN, priority 2021, published 2025)
